Data published in US11254686B1 (Corvus Pharmaceuticals, Inc., priority 2017, dated 2022).
pIC50: −log10 of the molar value.

Key:
adenosine A2B receptor = adenosine A2B receptor (Homo sapiens (Human), UniProt P29275); assay: Adenosine receptor activity assay (Table 1), A2B activity; format: biochemical; settings: for Ratio: A2A activity to A2B activity (A2A/A2B); for pIC50: read-out: Ave A2B cAMP IC50
adenosine A2A receptor = adenosine A2A receptor (Homo sapiens (Human), UniProt P29274); assay: Adenosine receptor activity assay (Table 1), A2A activity; format: biochemical; settings: read-out: Ave A2A cAMP IC50
Sequence of adenosine A2A receptor (P29274 whole entry): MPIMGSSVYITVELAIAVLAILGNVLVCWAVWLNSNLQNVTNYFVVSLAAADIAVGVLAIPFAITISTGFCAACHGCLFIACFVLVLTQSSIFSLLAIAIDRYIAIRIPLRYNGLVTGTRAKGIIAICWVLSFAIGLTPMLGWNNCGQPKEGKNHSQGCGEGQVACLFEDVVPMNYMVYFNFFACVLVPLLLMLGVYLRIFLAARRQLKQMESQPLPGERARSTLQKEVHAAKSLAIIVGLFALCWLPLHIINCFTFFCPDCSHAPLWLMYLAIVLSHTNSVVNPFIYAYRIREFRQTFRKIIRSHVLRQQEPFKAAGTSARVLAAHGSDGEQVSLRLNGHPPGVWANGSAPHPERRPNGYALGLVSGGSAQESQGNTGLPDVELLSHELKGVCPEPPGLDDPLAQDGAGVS

Sequence of adenosine A2B receptor (P29275 whole entry): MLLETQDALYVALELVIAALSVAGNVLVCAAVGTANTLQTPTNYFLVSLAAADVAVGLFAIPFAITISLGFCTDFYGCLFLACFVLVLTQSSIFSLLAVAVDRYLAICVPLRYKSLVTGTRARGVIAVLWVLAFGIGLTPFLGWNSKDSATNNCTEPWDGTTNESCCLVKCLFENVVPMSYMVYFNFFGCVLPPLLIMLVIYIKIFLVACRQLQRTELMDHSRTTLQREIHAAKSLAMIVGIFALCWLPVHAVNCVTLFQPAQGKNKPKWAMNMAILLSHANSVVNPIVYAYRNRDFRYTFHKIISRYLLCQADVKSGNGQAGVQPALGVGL

Structure (SMILES): C[C@H](Nc1nc(C(=O)N2CC(O)C2)c2sc(N)cc2n1)c1ccccn1 [Example Z205, (S)-(6-Amino-2-((1-(pyridin-2-yl)ethyl)amino)thieno[3,2-d]pyrimidin-4-yl)(3-hydroxyazetidin-1-yl)methanone]
- Ratio (adenosine A2B receptor): 27.10
- pIC50 (adenosine A2B receptor): 7.30 to 8.00
- pIC50 (adenosine A2A receptor): 6.30 to 7.00

Structure (SMILES): C[C@@H]1CCN(C(=O)c2nc(N[C@@H](C)c3ccccn3)nc3cc(N)sc23)C1 [Example Z206, (6-Amino-2-(((S)-1-(pyridin-2-yl)ethyl)amino)thieno[3,2-d]pyrimidin-4-yl)((R)-3-methylpyrrolidin-1-yl)methanone]
- Ratio (adenosine A2B receptor): 8.53
- pIC50 (adenosine A2B receptor): 7.30 to 8.00
- pIC50 (adenosine A2A receptor): 6.30 to 7.00

Structure (SMILES): CNc1cc2nc(N[C@@H](C)c3ccccn3)nc(C(=O)N3CC[C@@H](C)C3)c2s1 [Example Z207, (6-(Methylamino)-2-(((S)-1-(pyridin-2-yl)ethyl)amino)thieno[3,2-d]pyrimidin-4-yl)((R)-3-methylpyrrolidin-1-yl)methanone]
- Ratio (adenosine A2B receptor): 14.35
- pIC50 (adenosine A2B receptor): 7.30 to 8.00
- pIC50 (adenosine A2A receptor): 6.30 to 7.00

Structure (SMILES): C[C@H](Nc1nc(C(=O)N2CC[C@@H](O)C2)c2sc(N)cc2n1)c1ccccn1 [Example Z208, (6-Amino-2-(((S)-1-(pyridin-2-yl)ethyl)amino)thieno[3,2-d]pyrimidin-4-yl)((R)-3-hydroxypyrrolidin-1-yl)methanone]
- Ratio (adenosine A2B receptor): 18.79
- pIC50 (adenosine A2B receptor): 7.00 to 7.30
- pIC50 (adenosine A2A receptor): < 6.30

Structure (SMILES): C[C@H](Nc1nc(C(=O)NCCO)c2sc(N)cc2n1)c1ccccn1 [Example Z209, (S)-6-Amino-N-(2-hydroxyethyl)-2-((1-(pyridin-2-yl)ethyl)amino)thieno[3,2-d]pyrimidine-4-carboxamide]
- Ratio (adenosine A2B receptor): 30.22
- pIC50 (adenosine A2B receptor): 7.30 to 8.00
- pIC50 (adenosine A2A receptor): < 6.30

Structure (SMILES): CCc1cc2nc(N[C@@H](C)c3cccnc3)nc(C(=O)N3CCCC3)c2s1 [Example Z214, (S)-(6-Ethyl-2-((1-(pyridin-3-yl)ethyl)amino)thieno[3,2-d]pyrimidin-4-yl)(pyrrolidin-1-yl)methanone]
- Ratio (adenosine A2B receptor): 6.84
- pIC50 (adenosine A2B receptor): 6.30 to 7.00
- pIC50 (adenosine A2A receptor): < 6.30

Structure (SMILES): C[C@H](Nc1nc(C(=O)NCCS(C)(=O)=O)c2sccc2n1)c1ccccn1 [Example Z215, (S)—N-(2-(Methylsulfonyl)ethyl)-2-((1-(pyridin-2-yl)ethyl)amino)thieno[3,2-d]pyrimidine-4-carboxamide]
- Ratio (adenosine A2B receptor): 2.95
- pIC50 (adenosine A2B receptor): 6.30 to 7.00
- pIC50 (adenosine A2A receptor): 6.30 to 7.00

Structure (SMILES): COCC(Nc1nc(C(=O)NC2COC2)c2sccc2n1)c1cccnc1 (centres unmarked) [Example Z216, 2-((2-Methoxy-1-(pyridin-3-yl)ethyl)amino)-N-(oxetan-3-yl)thieno[3,2-d]pyrimidine-4-carboxamide]
- Ratio (adenosine A2B receptor): 5.35
- pIC50 (adenosine A2B receptor): 7.30 to 8.00
- pIC50 (adenosine A2A receptor): 6.30 to 7.00

Structure (SMILES): COCC(Nc1nc(C(=O)N2CC(OC)C2)c2sccc2n1)c1cccnc1 (centres unmarked) [Example Z217, (2-((2-Methoxy-1-(pyridin-3-yl)ethyl)amino)thieno[3,2-d]pyrimidin-4-yl)(3-methoxyazetidin-1-yl)methanone]
- Ratio (adenosine A2B receptor): 5.70
- pIC50 (adenosine A2B receptor): 7.30 to 8.00
- pIC50 (adenosine A2A receptor): 7.00 to 7.30

Structure (SMILES): COCC(Nc1nc(C(=O)N[C@H]2C[C@@H](O)C2)c2sccc2n1)c1cccnc1 (some centres unmarked) [Example Z218, N-((1s,3s)-3-Hydroxycyclobutyl)-2-((2-methoxy-1-(pyridin-3-yl)ethyl)amino)thieno[3,2-d]pyrimidine-4-carboxamide]
- Ratio (adenosine A2B receptor): 8.99
- pIC50 (adenosine A2B receptor): 7.30 to 8.00
- pIC50 (adenosine A2A receptor): 6.30 to 7.00

Structure (SMILES): C[C@H](Nc1nc(C(=O)N2CC[C@@H](O)C2)c2sc(N)cc2n1)c1cccnc1 [Example Z220, (6-Amino-2-(((S)-1-(pyridin-3-yl)ethyl)amino)thieno[3,2-d]pyrimidin-4-yl)((R)-3-hydroxypyrrolidin-1-yl)methanone]
- Ratio (adenosine A2B receptor): 44.45
- pIC50 (adenosine A2B receptor): 6.30 to 7.00
- pIC50 (adenosine A2A receptor): < 6.30

Structure (SMILES): C[C@H](Nc1nc(C(=O)NCC2CCOCC2)c2sccc2n1)c1ccccn1 [Example Z227, (S)-2-((1-(Pyridin-2-yl)ethyl)amino)-N-((tetrahydro-2H-pyran-4-yl)methyl)thieno[3,2-d]pyrimidine-4-carboxamide]
- Ratio (adenosine A2B receptor): 4.59
- pIC50 (adenosine A2B receptor): 7.30 to 8.00
- pIC50 (adenosine A2A receptor): 6.30 to 7.00

Structure (SMILES): C[C@H](Nc1nc(C(=O)NC[C@H]2CCCN2C(=O)OC(C)(C)C)c2sccc2n1)c1ccccn1 [Example Z228, tert-Butyl (R)-2-((2-(((S)-1-(pyridin-2-yl)ethyl)amino)thieno[3,2-d]pyrimidine-4-carboxamido)methyl)pyrrolidine-1-carboxylate]
- Ratio (adenosine A2B receptor): 2.80
- pIC50 (adenosine A2B receptor): < 6.30
- pIC50 (adenosine A2A receptor): < 6.30

Structure (SMILES): C[C@H](Nc1nc(C(=O)NCC(C)(C)O)c2sccc2n1)c1ccccn1 [Example Z230, (S)—N-(2-Hydroxy-2-methylpropyl)-2-((1-(pyridin-2-yl)ethyl)amino)thieno[3,2-d]pyrimidine-4-carboxamide]
- Ratio (adenosine A2B receptor): 7.45
- pIC50 (adenosine A2B receptor): 6.30 to 7.00
- pIC50 (adenosine A2A receptor): < 6.30

Structure (SMILES): CN(C(=O)OC(C)(C)C)C1CN(C(=O)c2nc(NCc3cncc(F)c3)nc3ccsc23)C1 [Example Z235, tert-Butyl (1-(2-(((5-fluoropyridin-3-yl)methyl)amino)thieno[3,2-d]pyrimidine-4-carbonyl)azetidin-3-yl)(methyl)carbamate]
- Ratio (adenosine A2B receptor): 2.57
- pIC50 (adenosine A2B receptor): 7.00 to 7.30
- pIC50 (adenosine A2A receptor): 6.30 to 7.00

Structure (SMILES): CC(C)(C)OC(=O)N[C@H]1CCN(C(=O)c2nc(NCc3cncc(F)c3)nc3ccsc23)C1 [Example Z245, tert-Butyl (S)-(1-(2-(((5-fluoropyridin-3-yl)methyl)amino)thieno[3,2-d]pyrimidine-4-carbonyl)pyrrolidin-3-yl)carbamate]
- Ratio (adenosine A2B receptor): 1.87
- pIC50 (adenosine A2B receptor): 7.00 to 7.30
- pIC50 (adenosine A2A receptor): 6.30 to 7.00

Structure (SMILES): C[C@H](Nc1nc(C(=O)N2CC[C@@H](NC(=O)OC(C)(C)C)C2)c2sccc2n1)c1ccccn1 [Example Z246, tert-Butyl ((R)-1-(2-(((S)-1-(pyridin-2-yl)ethyl)amino)thieno[3,2-d]pyrimidine-4-carbonyl)pyrrolidin-3-yl)carbamate]
- pIC50 (adenosine A2B receptor): 7.30 to 8.00
- pIC50 (adenosine A2A receptor): 6.30 to 7.00

Structure (SMILES): C[C@H](Nc1nc(C(=O)N2CC(O)C2)c2sc(N)cc2n1)c1cccnc1 [Example Z248, (S)-(6-Amino-2-((1-(pyridin-3-yl)ethyl)amino)thieno[3,2-d]pyrimidin-4-yl)(3-hydroxyazetidin-1-yl)methanone]
- Ratio (adenosine A2B receptor): 15.23
- pIC50 (adenosine A2B receptor): 7.00 to 7.30
- pIC50 (adenosine A2A receptor): < 6.30

Structure (SMILES): O=C(c1nc(NCc2cncc(C(F)(F)F)c2)nc2ccsc12)N1CCC1 [Example Z257, Azetidin-1-yl(2-(((5-(trifluoromethyl)pyridin-3-yl)methyl)amino)thieno[3,2-d]pyrimidin-4-yl)methanone]
- Ratio (adenosine A2B receptor): 9.16
- pIC50 (adenosine A2B receptor): 7.00 to 7.30
- pIC50 (adenosine A2A receptor): < 6.30

Structure (SMILES): O=C(c1nc(NCCc2ccccc2)nc2ccsc12)N1CCCC1 [Example Z258, (2-(Phenethylamino)thieno[3,2-d]pyrimidin-4-yl)(pyrrolidin-1-yl)methanone]
- Ratio (adenosine A2B receptor): 1.70
- pIC50 (adenosine A2B receptor): 6.30 to 7.00
- pIC50 (adenosine A2A receptor): 6.30 to 7.00

Structure (SMILES): CS(=O)(=O)[C@@H]1CCN(C(=O)c2nc(NCc3cncc(F)c3)nc3ccsc23)C1 [Example Z261, (R)-(2-(((5-Fluoropyridin-3-yl)methyl)amino)thieno[3,2-d]pyrimidin-4-yl)(3-(methylsulfonyl)pyrrolidin-1-yl)methanone]
- Ratio (adenosine A2B receptor): 10.23
- pIC50 (adenosine A2B receptor): 6.30 to 7.00
- pIC50 (adenosine A2A receptor): < 6.30

Structure (SMILES): C[C@H](Nc1nc(C(=O)N2CC[C@@H](S(C)(=O)=O)C2)c2sccc2n1)c1cccnc1 [Example Z262, ((R)-3-(Methylsulfonyl)pyrrolidin-1-yl)(2-(((S)-1-(pyridin-3-yl)ethyl)amino)thieno[3,2-d]pyrimidin-4-yl)methanone]
- Ratio (adenosine A2B receptor): 1.12
- pIC50 (adenosine A2B receptor): < 6.30
- pIC50 (adenosine A2A receptor): < 6.30

Structure (SMILES): O=C(c1nc(NCc2cncc(C(F)(F)F)c2)nc2ccsc12)N1CC[C@H](O)C1 [Example Z264, (S)-(3-Hydroxypyrrolidin-1-yl)(2-(((5-(trifluoromethyl)pyridin-3-yl)methyl)amino)thieno[3,2-d]pyrimidin-4-yl)methanone]
- Ratio (adenosine A2B receptor): 13.34
- pIC50 (adenosine A2B receptor): < 6.30
- pIC50 (adenosine A2A receptor): < 6.30

Structure (SMILES): C[C@H](O)CNC(=O)c1nc(NCc2cncc(C(F)(F)F)c2)nc2ccsc12 [Example Z265, (S)—N-(2-Hydroxypropyl)-2-(((5-(trifluoromethyl)pyridin-3-yl)methyl)amino)thieno[3,2-d]pyrimidine-4-carboxamide]
- Ratio (adenosine A2B receptor): 16.94
- pIC50 (adenosine A2B receptor): 6.30 to 7.00
- pIC50 (adenosine A2A receptor): < 6.30

Structure (SMILES): C[C@@H](O)CNC(=O)c1nc(NCc2cncc(C(F)(F)F)c2)nc2ccsc12 [Example Z266, (R)—N-(2-Hydroxypropyl)-2-(((5-(trifluoromethyl)pyridin-3-yl)methyl)amino)thieno[3,2-d]pyrimidine-4-carboxamide]
- Ratio (adenosine A2B receptor): 34.17
- pIC50 (adenosine A2B receptor): 6.30 to 7.00
- pIC50 (adenosine A2A receptor): < 6.30

Structure (SMILES): C[C@H](Nc1nc(C(=O)NC(CO)c2cccnc2)c2sccc2n1)c1ccccn1 (stereo partly drawn) [Example Z269, N-(2-Hydroxy-1-(pyridin-3-yl)ethyl)-2-(((S)-1-(pyridin-2-yl)ethyl)amino)thieno[3,2-d]pyrimidine-4-carboxamide]
- Ratio (adenosine A2B receptor): 0.36
- pIC50 (adenosine A2B receptor): < 6.30
- pIC50 (adenosine A2A receptor): 6.30 to 7.00

Structure (SMILES): O=C(c1nc(NC(CO)c2cccnc2)nc2ccsc12)N1CCCC1 (centres unmarked) [Example Z270, (2-((2-Hydroxy-1-(pyridin-3-yl)ethyl)amino)thieno[3,2-d]pyrimidin-4-yl)(pyrrolidin-1-yl)methanone]
- Ratio (adenosine A2B receptor): 27.81
- pIC50 (adenosine A2B receptor): 7.30 to 8.00
- pIC50 (adenosine A2A receptor): < 6.30

Structure (SMILES): O=C(c1nc(NCCn2ccnc2)nc2ccsc12)N1CCCC1 [Example Z273, (2-((2-(1H-Imidazol-1-yl)ethyl)amino)thieno[3,2-d]pyrimidin-4-yl)(pyrrolidin-1-yl)methanone]
- Ratio (adenosine A2B receptor): 2.15
- pIC50 (adenosine A2B receptor): < 6.30
- pIC50 (adenosine A2A receptor): < 6.30

Structure (SMILES): C[C@H](Nc1nc(C(=O)N2CC[C@H](S(C)(=O)=O)C2)c2sccc2n1)c1ccccn1 [Example Z274]
- Ratio (adenosine A2B receptor): 1.11
- pIC50 (adenosine A2B receptor): 6.30 to 7.00
- pIC50 (adenosine A2A receptor): 6.30 to 7.00

Structure (SMILES): C[C@H](Nc1nc(C(=O)N2CCCOC2)c2sccc2n1)c1ccccn1 [Example Z289, (S)-(1,3-Oxazinan-3-yl)(2-((1-(pyridin-2-yl)ethyl)amino)thieno[3,2-d]pyrimidin-4-yl)methanone]
- Ratio (adenosine A2B receptor): 14.69
- pIC50 (adenosine A2B receptor): 6.30 to 7.00
- pIC50 (adenosine A2A receptor): < 6.30
